# Assay results reported in ChEMBL document CHEMBL1130701, “Dual antagonists of platelet activating factor and histamine. 3. Synthesis, biological activity and conformational implications of substituted N-acyl-bis-arylcycloheptapiperazines” (Bioorg Med Chem Lett, 1998).
# Assays:
# Homo sapiens = organism: Homo sapiens; experiment: tissue or blood; type: functional, organism-based; conditions: Plasma
# Histamine H1 receptor = Histamine H1 receptor (Rattus norvegicus, UniProt P31390); experiment: Binding affinity against Histamine H1 receptor using receptor binding assay in rat brain membranes; type: cell membranes
# Sequence of Histamine H1 receptor (P31390 whole entry): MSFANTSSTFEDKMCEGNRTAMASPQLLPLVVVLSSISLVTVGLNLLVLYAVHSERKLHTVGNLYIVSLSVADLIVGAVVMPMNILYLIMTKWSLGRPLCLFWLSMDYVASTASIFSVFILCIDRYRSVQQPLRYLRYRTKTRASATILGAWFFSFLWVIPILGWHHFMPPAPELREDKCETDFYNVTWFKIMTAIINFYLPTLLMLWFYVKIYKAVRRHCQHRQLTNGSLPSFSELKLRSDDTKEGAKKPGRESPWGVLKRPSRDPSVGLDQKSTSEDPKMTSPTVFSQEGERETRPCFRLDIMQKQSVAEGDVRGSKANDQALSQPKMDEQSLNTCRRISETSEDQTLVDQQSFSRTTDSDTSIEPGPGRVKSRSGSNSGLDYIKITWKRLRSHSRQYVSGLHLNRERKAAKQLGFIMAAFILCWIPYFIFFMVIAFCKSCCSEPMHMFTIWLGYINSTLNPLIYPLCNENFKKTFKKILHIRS
IC50 (Homo sapiens),Ki (Histamine H1 receptor),SMILES
> 50 µM,≥ 3.8 µM,CCOC(=O)N1CCN(C2c3ccc(Cl)cc3CCc3cccnc32)CC1 (stereo not given)
14 µM,–,O=CN1CCC(=C2c3ccc(Cl)cc3CCc3cccnc32)CC1
14 µM,≥ 5 µM,CC(=O)N1CCN(C2c3ccc(Cl)cc3CCc3cccnc32)C[C@@H]1C (stereo not given in full)
13 µM,0.97 µM,CC(=O)N1CCCN(C2c3ccc(Cl)cc3CCc3cccnc32)CC1 (stereo not given)
28 µM,0.0065 µM,CN1CCN(C2c3ccc(Cl)cc3CCc3cccnc32)CC1 (stereo not given)
1.3 µM,3.6 µM,CC(=O)N1CCN([C@@H]2c3ccc(Cl)cc3CCc3cccnc32)CC1
2.4 µM,–,CCC(=O)N1CCC(=C2c3ccc(Cl)cc3CCc3cccnc32)CC1
0.42 µM,–,CC(=O)N1CCC(=C2c3ccc(Cl)cc3C=Cc3cccnc32)CC1
1.4 µM,2.5 µM,CCC(=O)N1CCN(C2c3ccc(Cl)cc3CCc3cccnc32)CC1 (stereo not given)
> 50 µM,0.049 µM,CN1CCN(C2c3ccc(Cl)cc3CCc3cccnc32)CC1=O (stereo not given)
26 µM,3.7 µM,CC(=O)N1CCN(C2c3ccccc3CCc3ccccc32)CC1
0.4 µM,5.4 µM,CC(=O)N1CCN(C2c3ccc(Cl)cc3CCc3cccnc32)CC1 (stereo not given)
≥ 50 µM,–,CN1CCC(=C2c3ccc(Cl)cc3CCc3cccnc32)CC1
1.8 µM,3.6 µM,O=C1CCC2CN(C3c4ccc(Cl)cc4CCc4cccnc43)CCN12 (stereo not given)
15 µM,3.6 µM,CCCC(=O)N1CCN(C2c3ccc(Cl)cc3CCc3cccnc32)CC1 (stereo not given)
41 µM,–,CC(=O)N1CCC(=C2c3ccccc3CCc3ccccc32)CC1
> 50 µM,≥ 7.1 µM,CC(=O)N1[C@H](C)CN(C2c3ccc(Cl)cc3CCc3cccnc32)C[C@@H]1C (stereo not given in full)
0.66 µM,–,CC(=O)N1CCN(C2c3ccc(Cl)cc3C=Cc3cccnc32)CC1 (stereo not given)
0.21 µM,> 10 µM,CC(=O)N1CCN([C@H]2c3ccc(Cl)cc3CCc3cccnc32)CC1
12 µM,0.29 µM,O=CN1CCN(C2c3ccc(Cl)cc3CCc3cccnc32)CC1 (stereo not given)
≥ 23 µM,0.0064 µM,Clc1ccc2c(c1)CCc1cccnc1C2N1CCNCC1 (stereo not given)
> 50 µM,–,CN(C)CCC(c1ccc(Cl)cc1)c1ccccn1 (stereo not given) [CHLORPHENIRAMINE]
> 50 µM,0.14 µM,O=C1CN(C2c3ccc(Cl)cc3CCc3cccnc32)CCN1 (stereo not given)
33 µM,–,CCCC(=O)N1CCC(=C2c3ccc(Cl)cc3CCc3cccnc32)CC1
